# US10682319B2, “Necrosis inhibitors” (National Institute of Biological Sciences, Beijing, priority 2014, dated 2020)
# Test system: HT-29 cells
# Experiment: Necrosis assay (TNF-α/Smac mimetic/z-VAD induced necrosis, cell viability by ATP level)
# Assay type: cell-based
# Conditions: HT-29, TNF-α + Smac mimetic + z-VAD, 24 hrs, ATP level; values given as ranges in nM; read-out: EC50 (inhibition of necrosis in HT-29 cells)
# Outline: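 Necrosis induced by 20 ng/ml TNF-α, 100 nM Smac mimetic and […], with compound added concurrently for 24 h. Viability read as ATP luminescence (CellTiter-Glo), normalized to DMSO-treated cells; duplicates.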
row,Compound,EC50 [nM]
1,"CN(Cc1cc(F)cc(F)c1F)C(=O)C(C)(C)C(C)(F)F [Compound S5, 3,3-difluoro-N,2,2-trimethyl-N-(2,3,5-trifluorobenzyl)butanamide]",1 to 1000
2,"CCC(C)(C)C(=O)N(O)Cc1ccc(F)cc1F [Compound 96, N-(2,4-difluorobenzyl)-N-hydroxy-2,2-dimethylbutanamide]",1 to 1000
3,"CCC(C)(C)C(=O)N(C)Cc1ccc(Cl)cc1F [Compound 27, N-(4-chloro-2-fluorobenzyl)-N,2,2-trimethylbutanamide]",1 to 1000
4,"CCC(C)(C)C(=O)N(Cc1ccccc1)OC [Compound S4, N-benzyl-N-methoxy-2,2-dimethylbutanamide]",1 to 1000
5,"CN(Cc1cc(F)cc(F)c1F)C(=O)C1(C)CCCCC1 [Compound 65, N,1-dimethyl-N-(2,3,5-trifluorobenzyl)cyclohexanecarboxamide]",1 to 1000
6,"CCC(C)(C)C(=O)N(C)Cc1cc(F)ccc1F [Compound 25, N-(2,5-difluorobenzyl)-N,2,2-trimethylbutanamide]",1 to 1000
7,"CN(Cc1cc(F)cc(F)c1F)C(=O)C1(C(F)(F)F)CCC1 [Compound 84, N-methyl-N-(2,3,5-trifluorobenzyl)-1-(trifluoromethyl)cyclobutanecarboxamide]",1 to 1000
8,"CCC(C)(C)C(=O)N(O)Cc1cc(F)cc(F)c1F [Compound 93, N-hydroxy-2,2-dimethyl-N-(2,3,5-trifluorobenzyl)butanamide]",1 to 1000
9,"CCC(C)(C)C(=O)N(C)Cc1cc(C)c(C)s1 [Compound 128, N-((4,5-dimethylthiophen-2-yl)methyl)-N,2,2-trimethylbutanamide]",1 to 1000
10,"CCC(C)(C)C(=O)N(C)Cc1cccc(F)c1F [Compound S8, N-(2,3-difluorobenzyl)-N,2,2-trimethylbutanamide]",1 to 1000
11,"CCC(C)(C)C(=O)N(C)Cc1ccco1 [Compound 43, N-(furan-2-ylmethyl)-N,2,2-trimethylbutanamide]",1 to 1000
12,"CCC(C)(C)C(=O)N(C)Cc1ccccc1 [Compound 90, N-benzyl-N,2,2-trimethylbutanamide]",1 to 1000
13,"CCC(C)(C)C(=O)N(C)Cc1ccc(OC)cc1F [Compound 28, N-(2-fluoro-4-methoxybenzyl)-N,2,2-trimethylbutanamide]",1 to 1000

# Same assay, conditions: Homo sapiens, HT-29, 24 h, HT-29, TNF-α + Smac mimetic + z-VAD, 24 hrs, ATP level; values given as ranges in uM; read-out: EC50 (inhibition of necrosis in HT-29 cells)
row,Compound,EC50 [nM]
1,"CCC(C)(C)C(=O)N(C)Cc1c(F)c(F)cc(F)c1F [Compound 51, N,2,2-trimethyl-N-(2,3,5,6-tetrafluorobenzyl)butanamide]",1000 to 10000
2,CCC(C)(C)C(=O)N(O)Cc1cn(C)cc1C [Compound 144],1000 to 100000
3,CCC(C)(C)C(=O)N(Cc1ccc(F)c(F)c1)OC [Compound 132],1000 to 100000
4,C=CC(C)(C)C(=O)N(C)Cc1ccccc1F [Compound 147],1000 to 100000
5,"CCC(C)(C)C(=O)N[C@@H](CC(=O)OC)c1ccccc1 [Compound 100, (S)-methyl 3-(2,2-dimethylbutanamido)-3-phenylpropanoate]",1000 to 100000
6,CC(F)(F)C(C)(C)C(=O)N(O)Cc1ccc(F)cc1 [Compound S9],1000 to 100000
7,CCC(C)(C)C(=O)N(O)Cc1sc(C)cc1C [Compound 138],1000 to 100000
8,"CCC(C)(C)C(=O)N(C)Cc1cccc(O)c1 [Compound 21, N-(3-hydroxybenzyl)-N,2,2-trimethylbutanamide]",1000 to 100000
9,"CCC(C)(C)C(=O)N(C)Cc1ccn(C)n1 [Compound 45, N,2,2-trimethyl-N-((1-methyl-1H-pyrazol-3-yl)methyl)butanamide]",1000 to 100000
10,CCC(C)(C)C(=O)N(O)C(CO)c1ccccc1 (stereo not shown) [Compound 150],1000 to 100000
11,"CCC(C)(C)C(=O)NCc1ccc(F)c(F)c1 [Compound 8, N-(3,4-difluorobenzyl)-2,2-dimethylbutanamide]",1000 to 10000
12,"CCC(C)(CC)C(=O)NCc1cc(F)cc(F)c1F [Compound 73, 2-ethyl-2-methyl-N-(2,3,5-trifluorobenzyl)butanamide]",1000 to 10000
13,"CCC(C)(C)C(=O)NC1(c2ccccc2)CC1 [Compound 54, 2,2-dimethyl-N-(1-phenylcyclopropyl)butanamide]",1000 to 100000
14,"CCC(C)(C)C(=O)N(C)Cc1c(F)ccc(C)c1F [Compound 50, N-(2,6-difluoro-3-methylbenzyl)-N,2,2-trimethylbutanamide]",1000 to 10000
15,"CCC(C)(C)C(=O)N(C)Cc1cc(F)ccc1C#N [Compound 57, N-(2-cyano-5-fluorobenzyl)-N,2,2-trimethylbutanamide]",1000 to 10000
16,CCC(C)(C)C(=O)N(O)Cc1cccn1C [Compound 143],1000 to 100000
17,"CCC(C)(C)C(=O)N[C@@H](C(=O)NCCOc1ccccc1)c1ccccc1 [Compound 127, (R)-2,2-dimethyl-N-(2-oxo-2-((2-phenoxyethyl)amino)-1-phenylethyl)butanamide]",1000 to 100000
18,CC(F)(F)C(C)(C)C(=O)N(O)Cc1cc(F)c(F)c(F)c1 [Compound S13],1000 to 100000
19,CC(F)(F)C(C)(C)C(=O)N(O)Cc1cc(F)cc(F)c1F [Compound S14],1000 to 100000
20,"CCC(C)(CC)C(=O)N(C)Cc1cc(F)c(F)c(F)c1 [Compound 72, 2-ethyl-N,2-dimethyl-N-(3,4,5-trifluorobenzyl)butanamide]",1000 to 10000
21,"CCC(C)(C)C(=O)NCc1cccnc1 [Compound 9, 2,2-dimethyl-N-(pyridin-3-ylmethyl)butanamide]",1000 to 10000
22,"CCC(C)(C)C(=O)N[C@@H](CC(=O)N1CCCCC1)c1ccccc1 [Compound 105, (S)-2,2-dimethyl-N-(3-oxo-1-phenyl-3-(piperidin-1-yl)propyl)butanamide]",1000 to 100000
23,"CCN(Cc1ccccc1F)C(=O)C(C)(C)CC [Compound 10, N-ethyl-N-(2-fluorobenzyl)-2,2-dimethylbutanamide]",1000 to 10000
24,CCC(C)(C)C(=O)N(O)Cc1ccc(C)s1 [Compound 137],1000 to 100000

row,Compound,EC50 [nM]
1,"CCC(C)(C)C(=O)N(C)Cc1c(F)cc(F)cc1F [Compound 48, N,2,2-trimethyl-N-(2,4,6-trifluorobenzyl)butanamide]",1000 to 10000
2,CC(F)(F)C(C)(C)C(=O)N(O)Cc1ccc(F)cc1F [Compound S10],1000 to 100000
3,"CC1CCCCN1C(=O)N(C)Cc1cc(F)cc(F)c1F (stereo not shown) [Compound 117, N,2-dimethyl-N-(2,3,5-trifluorobenzyl)piperidine-1-carboxamide]",1000 to 10000
4,CCC(C)(C)C(=O)N(O)CC1CCCO1 (stereo not shown) [Compound 142],1000 to 100000
5,"CCC(C)(C)C(=O)N(C)Cc1cccc(OC(F)(F)F)c1F [Compound 33, N-(2-fluoro-3-(trifluoromethoxy)benzyl)-N,2,2-trimethylbutanamide]",1000 to 100000
6,"CC1CCCN(C(=O)N(C)Cc2cc(F)cc(F)c2F)C1 (stereo not shown) [Compound 118, N,3-dimethyl-N-(2,3,5-trifluorobenzyl)piperidine-1-carboxamide]",1000 to 100000
7,"CCC(C)(C)C(=O)N(C)Cc1cccnc1 [Compound 35, N,2,2-trimethyl-N-(pyridin-3-ylmethyl)butanamide]",1000 to 10000
8,CON(Cc1ccc(F)cc1)C(=O)C(C)(C)C(C)(F)F [Compound S15],1000 to 100000
9,"CC(C)N(C(=O)N(C)Cc1cc(F)cc(F)c1F)C(C)C [Compound 119, 1,1-diisopropyl-3-methyl-3-(2,3,5-trifluorobenzyl)urea]",1000 to 100000
10,"CCC(C)(C)C(=O)N[C@@H](CC(=O)Nc1ccccc1)c1ccccc1 [Compound 106, (S)-2,2-dimethyl-N-(3-oxo-1-phenyl-3-(phenylamino)propyl)butanamide]",1000 to 100000
11,"CN(Cc1cc(F)cc(F)c1F)C(=O)C1CCC1 [Compound 83, N-methyl-N-(2,3,5-trifluorobenzyl)cyclobutanecarboxamide]",1000 to 10000
12,CC(F)(F)C(C)(C)C(=O)N(O)Cc1cc(F)c(F)cc1F [Compound S12],1000 to 100000
13,"CN(Cc1cc(F)cc(F)c1F)C(=O)C12CC3CC(CC(C3)C1)C2 [Compound 76, N-methyl-N-(2,3,5-trifluorobenzyl)adamantane-1-carboxamide]",1000 to 100000
14,"CCNC(=O)C[C@H](NC(=O)C(C)(C)CC)c1ccccc1 [Compound 103, (S)—N-(3-(ethylamino)-3-oxo-1-phenylpropyl)-2,2-dimethylbutanamide]",1000 to 100000
15,"CCC(C)(C)C(=O)N(C)Cc1ccccc1OC [Compound 15, N-(2-methoxybenzyl)-N,2,2-trimethylbutanamide]",1000 to 100000
16,"CN(Cc1ccccc1F)C(=O)NC1CCCCC1 [Compound 113, 3-cyclohexyl-1-(2-fluorobenzyl)-1-methylurea]",1000 to 100000
17,"CCC1(C(=O)N(C)Cc2cc(F)c(F)c(F)c2)CCCC1 [Compound 89, 1-ethyl-N-methyl-N-(3,4,5-trifluorobenzyl)cyclopentanecarboxamide]",1000 to 10000
18,"CCC(C)(C)C(=O)NCc1cccc(F)c1 [Compound 5, N-(3-fluorobenzyl)-2,2-dimethylbutanamide]",1000 to 10000
19,CCC(C)(C)C(=O)N(O)CC1CCCC1 [Compound 139],1000 to 100000
20,"CCC(C)(C)C(=O)NCc1ccccc1Br [Compound 3, N-(2-bromobenzyl)-2,2-dimethylbutanamide]",1000 to 10000
21,"CC(C)N(C)C(=O)N(C)Cc1cc(F)cc(F)c1F [Compound 120, isopropyl-1,3-dimethyl-3-(2,3,5-trifluorobenzyl)urea]",1000 to 10000
22,CCC(C)(C)C(=O)N(Cc1ccc(F)cc1)OC [Compound 130],1000 to 100000
23,"CN(Cc1cc(F)cc(F)c1F)C(=O)C1(c2ccccc2)CCCC1 [Compound 87, N-methyl-1-phenyl-N-(2,3,5-trifluorobenzyl)cyclopentanecarboxamide]",1000 to 100000
24,"CN(Cc1cc(F)c(F)c(F)c1)C(=O)c1c(Cl)cccc1Cl [Compound 129, 2,6-dichloro-N-methyl-N-(3,4,5-trifluorobenzyl)benzamide]",1000 to 100000
